Measurements taken from article PMC11172478, “1,3,5-Triazine as Branching Connector for the Construction of Novel Antimicrobial Peptide Dendrimers: Synthesis and Biological Characterization” (International Journal of Molecular Sciences, 2024).

Experiments:
[1] = system: MDR P. aeruginosa; assay type: cell-based; conditions: 24 h
Method: E. coli ATCC 25922, P. aeruginosa ATCC 27853, S. aureus ATCC 29213, P. aeruginosa 666 SJD (ciprofloxacin-resistant), P. aeruginosa P12, P13, P15, P16 and P17 (MDR isolates) and E. coli 7987, 5545, 8248, 13974, 7259 and 208691 (MDR isolates) from our own collection were included in the present study.
The antimicrobial activity of the dendrimers was evaluated against E. coli ATCC 25922, P. aeruginosa ATCC 27853 and S. aureus ATCC 29213 strains. The MIC values were determined by the broth microdilution method. Briefly, the different strains were grown in Muller Hinton broth cation adjusted (MHBCA) medium overnight at 37 °C with shaking at 200 rpm. The bacterial cultures were then adjusted to OD625nm of 0.08–0.1, and 5 μL of each diluted suspension was added to 96-well plates previously filled with MHBCA and serially diluted peptides. Plates were incubated for 24 h at 37 °C. Finally, the MIC was determined macroscopically, based on the visual turbidity of the wells.

[2] = system: P. aeruginosa ATCC 27853; assay: Time-kill curves; assay type: cell-based; conditions: P. aeruginosa ATCC 27853, ½ MIC
Method: The death kinetics of the active dendrimers were examined by plotting their time-kill curves against E. coli ATCC 25922 and P. aeruginosa ATCC 27853. The dendrimers were added to a starting bacterial inoculum of 10^6 CFU/mL in 5 mL of MHBCA medium. Dendrimers were tested at three different concentrations: MIC, ½ MIC and ¼ MIC. They were incubated for 24 h at 37 °C with shaking at 200 rpm. Samples were aseptically collected at 0, 1, 2, 4 and 6 h, serially diluted in Ringer ¼ and plated on Tryptone soy agar for colony counting.
The response of the microbial strains to the dendrimers was determined based on a logarithmic decrease in viable bacteria. A compound was considered active if it caused a reduction of ≥1 log10 CFU/mL, compared to the corresponding counts at time 0 h. In addition, a dendrimer was considered bactericidal if it caused a reduction of ≥3 log10 CFU/mL [40].

CC(C)C[C@H](NC(=O)[C@H](CCCCN)NC(=O)[C@H](CC(C)C)NC(=O)[C@H](CCCCN)NC(=O)[C@H](CC(C)C)Nc1nc(NCCNC(=O)[C@H](CCCCN)NC(=O)[C@H](CC(C)C)NC(=O)[C@H](CCCCN)NC(=O)[C@H](CC(C)C)NC(=O)[C@H](CCCCN)NC(=O)[C@@H](N)CC(C)C)nc(NCCNC(=O)[C@H](CCCCN)NC(=O)[C@H](CC(C)C)NC(=O)[C@H](CCCCN)NC(=O)[C@H](CC(C)C)NC(=O)[C@H](CCCCN)NC(=O)[C@@H](N)CC(C)C)n1)C(=O)N[C@@H](CCCCN)C(N)=O [Dendrimer 2, H-[(LK)3-EDA]2-TA-(LK)3-NH2]
MIC values in MDR P. aeruginosa (span over isolates) [1]: 16 to 32 µg/mL
time-kill activity at ½ MIC (in words) [2]: higher antimicrobial activity than dendrimer 1
